Data: patent US7358255B2, “Therapeutic agent for keratoconjunctival disorder” (Santen Pharmaceutical Co., Ltd., priority 2003, dated 2008)

What was measured:
[1] = hydrochloride compared with free form; cited from earlier work
[2] = hydrochloride compared with free form; cited from earlier work; remark: listed apart in the source
[3] = test system: corneal damage in dry eye model (exorbital lacrimal gland removed); assay: Healing effect test for corneal damage (dry eye model, fluorescein staining score); format: in vivo, male SD rats
Procedure: Healing Effect Test for Corneal Damage Using male SD rats, a dry eye model was produced according to the method of Fujihara et al. (Invest. Ophthalmol. Vis. Sci 42 (1): 96-100 (2001)). After producing the dry eye model, cure rate of a corneal damage was determined according to the method of Miyata et al. (Japanese Review of Clinical Ophthalmology, 48 (2): 183-188 (1994)). A male SD rat was systemically anesthetized by an interperitoneal administration of Nembutal in an amount of 35 mg/kg. Subsequently, exorbital lacrimal gland was removed, and corneal damage was induced over two months. Next, a 0.01% solution of the present compound dissolved in a physiological saline solution was instilled into one eye, while the physiological saline solution (control) was instilled into the other eye, respectively, six times per day for 7 days. On day 7 after initiating the instillation, impaired part of the cornea was stained with fluorescein. Score of upper, middle and lower parts of the cornea were assessed according to the following criteria on the extent of staining by fluorescein, respectively. […] Similar test was also conducted on normal eyes as described above to determine the mean value of total scores on each part described above. 0: No punctate staining 1: Scattered staining (punctate, separated staining) 2: Moderate staining (a part of punctate staining being adjacent) 3: Heavy staining (punctate, barely separated staining) Improvement ratio of the 0.01% eye drop administration group of the present compound is shown in Table 1 calculated on the basis of the mean value of total scores of the aforementioned respective parts in the group (control) administered with a physiological saline solution eye drop as a standard value (improvement ratio: 0%), according to the following calculating formula. Mean value of the scores was obtained by averaging 8 examples in each case. [formula]

SMILES	Oral absorptivity [1]	Solubility in comparison with the free form [2]	Improvement ratio (%) ([3]; 0.01% eye drop, six times per day for 7 days, calculated from mean total scores with saline control as 0%)	Mean value of total scores ([3]; fluorescein staining scores (0-3) of upper, middle and lower cornea summed, 0.01% solution in physiological saline instilled six times per day for 7 days, day 7, mean of 8, normal eye 2.9, control 6.1)	Improvement of the corneal damage (in words) ([3]; rat dry eye model, 0.01% eye drop)
COc1ccc2nc(COc3ccc(CC4SC(=O)NC4=O)cc3)n(C)c2c1 (centres unmarked) [5-[4-(6-methoxy-1-methyl-1H-benzimidazol-2-ylmethoxy)benzyl]thiazolidine-2,4-dione]	excellent oral absorptivity	remarkable elevation of solubility	–	–	–
COc1ccc2nc(COc3ccc(CC4SC(=O)NC4=O)cc3)n(C)c2c1 (centres unmarked) [Present compound, 5-[4-(6-methoxy-1-methyl-1H-benzimidazol-2-ylmethoxy)benzyl]thiazolidine-2,4-dione]	–	–	53%	4.4	markedly improves the corneal damage
